Literature values, collected in patent US8759032B2, “Genetically engineered strain WSJ-IA for producing isovaleryl spiramycin I” (Shen Yang Tonglian Group Co., Ltd., priority 2010, dated 2014).

Details: single components; no significant differences in their activities; patent application 201010119745.1

Row | Compound | antibiotic activities
1 | CCC(=O)O[C@@H]1CC(=O)O[C@H](C)C/C=C/C=C/[C@H](O[C@H]2CC[C@H](N(C)C)[C@@H](C)O2)[C@H](C)C[C@H](CC=O)[C@H](O[C@@H]2O[C@H](C)[C@@H](O[C@H]3C[C@@](C)(O)[C@@H](OC(=O)CC(C)C)[C@H](C)O3)[C@H](N(C)C)[C@H]2O)[C@H]1OC [Isovaleryl spiramycin III] | all have antibiotic activities
2 | CO[C@@H]1[C@@H](O[C@@H]2O[C@H](C)[C@@H](O[C@H]3C[C@@](C)(O)[C@@H](OC(=O)CC(C)C)[C@H](C)O3)[C@H](N(C)C)[C@H]2O)[C@@H](CC=O)C[C@@H](C)[C@@H](O[C@H]2CC[C@H](N(C)C)[C@@H](C)O2)/C=C/C=C/C[C@@H](C)OC(=O)C[C@H]1O [Isovaleryl spiramycin I] | all have antibiotic activities
3 | Isovaleryl spiramycin II | all have antibiotic activities
